A short description of data set [1]: Cytotoxicity against human MT2 cells by MTT assay. It counts as cell-based. On the technique in general: Formazan colour is commonly taken as a measure of viable cells.
The test system of data set [2] is Human immunodeficiency virus 1. Description: Ratio of compound IC50 to 1-(20-deoxy-40-C-ethynyl-beta-D-arabinofuranosyl)-thymine IC50 for HIV1 bearing VSV glycoprotein infected in human MT2 cells assessed as inhibition of viral replication after 48 hrs by luciferase reporter gene assay. Format: functional. Background: A reporter such as luciferase makes a cellular process visible.

Data set [3] has as its system Human immunodeficiency virus 1. In words: Antiviral activity against HIV1 bearing VSV glycoprotein infected in human MT2 cells assessed as inhibition of viral replication after 48 hrs by luciferase reporter gene assay. It counts as functional, organism-based. Conditions: Human immunodeficiency virus 1, MT2, 48 h.
Data set [4] has as its system Human immunodeficiency virus 1. Description: Antiviral activity against wild type HIV1 NL4-3 infected in human TZM-bl cells assessed as inhibition of viral replication after 4 days by p24 based ELISA. Conditions: Human immunodeficiency virus 1, NL4-3, TZM-bl, 96 h. Format: functional, organism-based. Background: ELISA stands for enzyme-linked immunosorbent assay.
Data set [5] relates to Human immunodeficiency virus 1. Description: Antiviral activity against reverse transcriptase multidrug-resistant HIV1 infected in human TZM-bl cells assessed as inhibition of viral replication after 4 days by p24 based ELISA. Format: functional, organism-based. Conditions: Human immunodeficiency virus 1, TZM-bl, 96 h.
For data set [6], the system named is Human immunodeficiency virus 1. Description: Antiviral activity against HIV1 NL4-3 with reverse transcriptase K101E mutant infected in human TZM-bl cells assessed as inhibition of viral replication after 4 days by p24 based ELISA. It counts as functional, organism-based. Conditions: Human immunodeficiency virus 1, NL4-3, TZM-bl, 96 h.
For data set [7], the system named is Human immunodeficiency virus 1. Description: Ratio of compound IC50 to zidovudine IC50 for HIV1 bearing VSV glycoprotein infected in human MT2 cells assessed as inhibition of viral replication after 48 hrs by luciferase reporter gene assay. Format: functional.

We go through 4 molecules from ChEMBL document CHEMBL1177822, “Synthesis and anti-HIV activity of 2'-deoxy-2'-fluoro-4'-C-ethynyl nucleoside analogs” (Bioorg Med Chem Lett, 2010).

Structures are written as SMILES.

By CC50 is commonly meant the concentration at which the toxic effect on the cells reaches its halfway point. Lower therefore signals greater toxicity to the cells. By IC50 is commonly meant the midpoint of a concentration-inhibition curve. In data set [1], `C#C[C@]1(CO)O[C@@H](n2cc(C)c(=O)[nH]c2=O)[C@@H](F)[C@@H]1O` returned a CC50 of more than 10000 nM. Moreover, the “Ratio IC50” value in data set [2] is listed as 10. In addition, the IC50 in data set [3] was found to be 86 nM.
In data set [1], `C#C[C@]1(CO)O[C@@H](n2ccc(=O)[nH]c2=O)[C@@H](F)[C@@H]1O` came in with a CC50 of more than 10000 nM. Also, the IC50 in data set [3] came out at 6530 nM.
Turning to `C#C[C@]1(CO)O[C@@H](n2ccc(N)nc2=O)[C@@H](F)[C@@H]1O`, the IC50 worked out at 0.46 nM in data set [4], 1.34 nM in data set [3], 1.45 nM in data set [5] and 1.52 nM in data set [6]. The molecule further had a CC50 in data set [1] of more than 10000 nM. In data set [7], the “Ratio IC50” value came to 35.
The molecule `Cc1cn([C@H]2C[C@H](N=[N+]=[N-])[C@@H](CO)O2)c(=O)[nH]c1=O` [ZIDOVUDINE] yielded a cytotoxic concentration (CC50) in data set [1] of more than 200000 nM. Also, the IC50 in data set [3] was found to be 47 nM.
